# Data taken from patent publication US8377691B2 (priority 2006, dated 2013).
# “Also recorded” adds a separate entry of the source. Like-named read-outs stand apart in the source and are kept apart here.
# Key:
# human KCNQ2/3 channel = molecular target: T1, human KCNQ2/3 channel (Homo sapiens, UniProt O43525+O43526); type: biochemical
# T1 construct: made in house
# [1] = type: biochemical; conditions: for response to 30 mM K2SO4 after prior disruption of the lipoparticle structure: gramicidin (1 uM) or melittin (5 uM)
# A/M2/HK156/94 = A/M2/HK156/94 (Influenza A virus, UniProt O70632); assay: biochemical; type: biochemical; conditions: for H+ transport across VLP membranes (fluorescence): pH 4.5
# Sequence of A/M2/HK156/94 (O70632 whole entry, looked up): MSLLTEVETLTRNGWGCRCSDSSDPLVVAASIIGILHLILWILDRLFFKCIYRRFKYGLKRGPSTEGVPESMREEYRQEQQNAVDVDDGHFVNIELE
# A/M2 Udorn72 = A/M2 Udorn72 (Influenza A virus, UniProt P0DOF5); type: biochemical; conditions: pH 4.5
# Sequence of A/M2 Udorn72 (P0DOF5 whole entry, looked up): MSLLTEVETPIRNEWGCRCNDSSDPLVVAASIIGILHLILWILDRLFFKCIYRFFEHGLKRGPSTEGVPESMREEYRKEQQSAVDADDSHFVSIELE
# [2] = molecular target: M2 viral ion channel, Influenza A (Udorn/72) virions (Influenza A virus, UniProt P0DOF5); type: biochemical
# Sequence of M2 viral ion channel, Influenza A (Udorn/72) virions (P0DOF5 whole entry, looked up): as above
# M2 = conditions: cited from earlier work
# 5HT3a cation channel = 5HT3a cation channel (Homo sapiens, UniProt P46098); type: biochemical
# Sequence of 5HT3a cation channel (P46098 24-478): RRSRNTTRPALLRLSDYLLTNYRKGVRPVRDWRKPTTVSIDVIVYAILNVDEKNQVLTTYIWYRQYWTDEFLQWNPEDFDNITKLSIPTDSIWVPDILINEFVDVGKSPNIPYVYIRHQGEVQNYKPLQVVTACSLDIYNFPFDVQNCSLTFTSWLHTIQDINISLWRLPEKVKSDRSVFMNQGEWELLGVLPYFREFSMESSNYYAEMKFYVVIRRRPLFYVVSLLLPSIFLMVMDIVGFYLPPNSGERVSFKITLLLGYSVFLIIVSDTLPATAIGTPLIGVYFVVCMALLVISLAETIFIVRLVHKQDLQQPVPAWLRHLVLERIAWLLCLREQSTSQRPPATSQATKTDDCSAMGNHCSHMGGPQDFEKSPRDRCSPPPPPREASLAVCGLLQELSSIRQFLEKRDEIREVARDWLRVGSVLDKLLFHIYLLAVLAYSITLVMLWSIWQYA
# Shaker(Δ6-46)T449V = molecular target: T2, Shaker(Δ6-46)T449V (Drosophila melanogaster, UniProt P08510, DEL6-46/T449V); type: biochemical; conditions: for Shaker activity: iberiotoxin (10 uM), margatoxin (10 uM); for lipoparticle Shaker activity: pre-treated with 10 nM toxin, duplicate experiments
# T2 construct: made in house; host or cells: 293 / HEK-293 cells co-transfected with MLV Gag
# T2 sequence (P08510 with tags, fused parts or gaps DEL6-46/T449V): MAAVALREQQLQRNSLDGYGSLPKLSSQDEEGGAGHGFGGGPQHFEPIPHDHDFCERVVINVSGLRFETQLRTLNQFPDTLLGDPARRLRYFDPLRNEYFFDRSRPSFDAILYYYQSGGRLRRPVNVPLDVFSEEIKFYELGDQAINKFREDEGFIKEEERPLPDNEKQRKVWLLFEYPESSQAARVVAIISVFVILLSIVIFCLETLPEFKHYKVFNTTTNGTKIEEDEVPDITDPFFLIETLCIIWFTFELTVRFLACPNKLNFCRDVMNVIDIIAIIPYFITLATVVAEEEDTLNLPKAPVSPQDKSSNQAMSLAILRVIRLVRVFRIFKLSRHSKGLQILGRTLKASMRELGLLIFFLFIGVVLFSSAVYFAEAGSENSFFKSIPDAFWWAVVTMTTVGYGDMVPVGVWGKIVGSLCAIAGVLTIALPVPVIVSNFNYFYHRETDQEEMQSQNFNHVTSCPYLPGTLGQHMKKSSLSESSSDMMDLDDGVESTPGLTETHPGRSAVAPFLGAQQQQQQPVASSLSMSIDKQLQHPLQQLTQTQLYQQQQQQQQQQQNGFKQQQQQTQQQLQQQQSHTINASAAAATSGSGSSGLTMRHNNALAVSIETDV
# Shaker T449K mutant = molecular target: T3, Shaker T449K mutant (Drosophila melanogaster, UniProt P08510, T449K); type: biochemical; conditions: 10 nM CHTX pre-treatment
# T3 construct: made in house
# T3 sequence (P08510 whole entry T449K): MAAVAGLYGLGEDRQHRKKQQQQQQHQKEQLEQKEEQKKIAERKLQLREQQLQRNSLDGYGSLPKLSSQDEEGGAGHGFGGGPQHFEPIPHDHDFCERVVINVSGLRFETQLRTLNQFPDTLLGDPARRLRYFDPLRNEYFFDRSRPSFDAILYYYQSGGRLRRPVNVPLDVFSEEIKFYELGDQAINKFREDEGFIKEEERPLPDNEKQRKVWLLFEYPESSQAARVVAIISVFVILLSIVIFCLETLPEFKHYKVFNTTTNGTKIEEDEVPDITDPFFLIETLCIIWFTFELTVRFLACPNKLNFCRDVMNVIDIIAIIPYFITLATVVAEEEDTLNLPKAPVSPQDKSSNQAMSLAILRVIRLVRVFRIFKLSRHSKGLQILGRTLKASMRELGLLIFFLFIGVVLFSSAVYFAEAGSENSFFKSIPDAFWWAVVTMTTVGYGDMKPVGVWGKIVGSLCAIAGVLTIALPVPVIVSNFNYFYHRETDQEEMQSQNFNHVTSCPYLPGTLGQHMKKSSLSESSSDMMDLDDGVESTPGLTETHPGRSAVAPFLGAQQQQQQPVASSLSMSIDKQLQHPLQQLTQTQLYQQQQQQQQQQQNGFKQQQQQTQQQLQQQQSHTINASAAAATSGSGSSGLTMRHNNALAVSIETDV
# Shaker = Shaker (Drosophila melanogaster, UniProt P08510); conditions: cited from earlier work
# Sequence of Shaker (P08510 whole entry): as the sequence (P08510 whole entry T449K) above, with K449T counted along it
# T1 sequence (O43526 whole entry): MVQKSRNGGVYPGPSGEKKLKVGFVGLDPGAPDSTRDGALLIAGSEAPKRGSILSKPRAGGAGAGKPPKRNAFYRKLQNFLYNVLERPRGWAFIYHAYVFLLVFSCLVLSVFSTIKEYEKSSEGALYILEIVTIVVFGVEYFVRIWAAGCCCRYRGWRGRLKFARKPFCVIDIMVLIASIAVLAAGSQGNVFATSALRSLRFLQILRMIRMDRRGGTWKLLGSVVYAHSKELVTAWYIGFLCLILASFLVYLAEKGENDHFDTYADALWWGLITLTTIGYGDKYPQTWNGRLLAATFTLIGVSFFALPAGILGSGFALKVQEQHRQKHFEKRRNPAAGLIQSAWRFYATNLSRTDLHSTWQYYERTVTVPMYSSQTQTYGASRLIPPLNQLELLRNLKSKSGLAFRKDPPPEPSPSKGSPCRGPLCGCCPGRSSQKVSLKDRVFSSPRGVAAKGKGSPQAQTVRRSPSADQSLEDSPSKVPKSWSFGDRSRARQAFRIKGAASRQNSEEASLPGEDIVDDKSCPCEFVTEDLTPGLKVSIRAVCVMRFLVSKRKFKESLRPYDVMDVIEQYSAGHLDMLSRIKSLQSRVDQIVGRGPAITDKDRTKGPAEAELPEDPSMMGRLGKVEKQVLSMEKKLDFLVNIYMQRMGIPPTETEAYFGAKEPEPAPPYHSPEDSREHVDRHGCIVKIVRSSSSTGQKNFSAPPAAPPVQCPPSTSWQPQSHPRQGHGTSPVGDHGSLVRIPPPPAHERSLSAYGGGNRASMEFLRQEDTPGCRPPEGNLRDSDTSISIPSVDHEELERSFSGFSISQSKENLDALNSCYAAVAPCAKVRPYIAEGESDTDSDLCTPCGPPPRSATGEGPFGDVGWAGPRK
# T1 sequence (O43525 whole entry): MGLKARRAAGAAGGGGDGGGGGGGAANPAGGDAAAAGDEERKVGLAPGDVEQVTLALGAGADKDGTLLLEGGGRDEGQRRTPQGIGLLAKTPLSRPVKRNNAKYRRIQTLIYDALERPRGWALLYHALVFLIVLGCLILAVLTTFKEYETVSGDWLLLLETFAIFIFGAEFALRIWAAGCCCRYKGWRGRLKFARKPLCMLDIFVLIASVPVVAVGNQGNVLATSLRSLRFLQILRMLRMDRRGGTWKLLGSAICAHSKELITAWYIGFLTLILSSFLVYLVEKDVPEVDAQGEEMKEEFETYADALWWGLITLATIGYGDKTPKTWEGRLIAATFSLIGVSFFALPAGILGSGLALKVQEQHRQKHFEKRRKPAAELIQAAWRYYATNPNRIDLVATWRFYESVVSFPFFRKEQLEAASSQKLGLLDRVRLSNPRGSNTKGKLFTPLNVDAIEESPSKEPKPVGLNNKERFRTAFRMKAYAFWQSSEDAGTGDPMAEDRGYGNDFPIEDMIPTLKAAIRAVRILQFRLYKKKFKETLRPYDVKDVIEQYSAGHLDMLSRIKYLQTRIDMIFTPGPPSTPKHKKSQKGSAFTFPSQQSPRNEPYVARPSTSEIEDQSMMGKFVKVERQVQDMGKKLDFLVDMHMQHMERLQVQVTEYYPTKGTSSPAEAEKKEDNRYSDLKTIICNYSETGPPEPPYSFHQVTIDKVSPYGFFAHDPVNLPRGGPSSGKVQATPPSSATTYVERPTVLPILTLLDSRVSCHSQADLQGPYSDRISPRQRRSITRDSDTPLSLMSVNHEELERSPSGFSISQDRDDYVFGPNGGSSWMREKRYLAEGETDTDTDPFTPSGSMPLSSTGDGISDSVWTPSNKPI
molecule,measurement,setting,value
[Ba+2].[Cl-].[Cl-] [BaCl2],fluorescent signal on K+ addition,human KCNQ2/3 channel; 20 mM BaCl2,inhibition
same,fluorescent signal on K+ addition,human KCNQ2/3 channel; 120 mM BaCl2 pre-treatment,capable of inhibiting the fluorescent signal
"CC(C)[C@@H]1NC(=O)[C@H](C)OC(=O)[C@@H](C(C)C)NC(=O)[C@@H](C(C)C)OC(=O)[C@H](C(C)C)NC(=O)[C@H](C)OC(=O)[C@@H](C(C)C)NC(=O)[C@@H](C(C)C)OC(=O)[C@H](C(C)C)NC(=O)[C@H](C)OC(=O)[C@@H](C(C)C)NC(=O)[C@@H](C(C)C)OC1=O [Valinomycin, valinomycin]",fluorescent signal on K+ exposure (normalized to baseline),"[1]; valinomycin-treated null-lipoparticles, twelve replicates, microplate, mean+/−standard deviation, untreated 1.023+/−0.009",1.347+/−0.036
NC12CC3CC(CC(C3)C1)C2 [amantadine],Hillslope of inhibition curve,A/M2/HK156/94,−0.71
same,IC50,A/M2/HK156/94,980 nM
same,mean change in fluorescence resulting from MES addition,A/M2/HK156/94,314±206
same,H+ transport across VLP membranes (fluorescence),A/M2/HK156/94,"abrogated the subsequent movement of H^+; also recorded: in the absence, but not in the presence of amantadine"
same,H+ transport fluorescence signal,A/M2 Udorn72,inhibited the fluorescent response; also recorded: abrogated the subsequent movement of H^+; also recorded: completely abrogated
same,fluorescent signal (membrane potential response) on low pH challenge,[2],attenuated the fluorescent signal in a dose-dependent fashion; also recorded: inhibited
same,IC50,"M2; other measures of M2 function, such as plaque assay, read-out: IC50 reported in the literature",1000 to 10000 nM
CC[C@H](C)[C@H](NC(=O)CN)C(=O)NCC(=O)N[C@@H](C)C(=O)N[C@H](C(=O)N[C@@H](CC(C)C)C(=O)N[C@@H](CCCCN)C(=O)N[C@H](C(=O)N[C@@H](CC(C)C)C(=O)N[C@H](C(=O)N[C@H](C(=O)NCC(=O)N[C@@H](CC(C)C)C(=O)N1CCC[C@H]1C(=O)N[C@@H](C)C(=O)N[C@@H](CC(C)C)C(=O)N[C@H](C(=O)N[C@@H](CO)C(=O)N[C@@H](Cc1c[nH]c2ccccc12)C(=O)N[C@H](C(=O)N[C@@H](CCCCN)C(=O)N[C@@H](CCCNC(=N)N)C(=O)N[C@@H](CCCCN)C(=O)N[C@@H](CCCNC(=N)N)C(=O)N[C@@H](CCC(N)=O)C(=O)N[C@@H](CCC(N)=O)C(N)=O)[C@@H](C)CC)[C@@H](C)CC)[C@@H](C)O)[C@@H](C)O)C(C)C)C(C)C [melittin],response to 30 mM K2SO4 after prior disruption of the lipoparticle structure,[1],eliminated the response
CC(N)C12CC3CC(CC(C3)C1)C2 (stereo not drawn) [rimantadine],Hillslope of inhibition curve,A/M2/HK156/94,−1.1
same,IC50,A/M2/HK156/94,180 nM
same,mean change in fluorescence resulting from MES addition,A/M2/HK156/94,−432±167
same,H+ transport across VLP membranes (fluorescence),A/M2/HK156/94,abrogated the subsequent movement of H^+
same,H+ transport fluorescence signal,A/M2 Udorn72,inhibited the fluorescent response; also recorded: abrogated the subsequent movement of H^+; also recorded: completely abrogated
same,potency relative to amantadine reported in the literature,M2; more potent than amantadine,approximately 10 times
NCCc1c[nH]c2ccc(O)cc12 [serotonin],dependence of the fluorescent signal on the ligand,5HT3a cation channel,"dependent upon the presence; also recorded: omission of the ion channel ligand, serotonin, from the assay mix resulted in no change in fluorescence intensity"
COc1cc2c3cc1Oc1cc(ccc1O)C[C@@H]1c4c(cc(OC)c(O)c4Oc4ccc(cc4)C[C@@H]3N(C)CC2)CC[N+]1(C)C [tubocurarine],fluorescent signal on Na+ addition,5HT3a cation channel,capable of inhibiting the fluorescent signal; also recorded: inhibition
charybdotoxin [CHTX],Shaker conductance of K+ across lipoparticle membranes,"Shaker(Δ6-46)T449V; 10 nM CHTX pre-incubation, 30 mM K2SO4",completely inhibited
same,inhibition of the fluorescent signal over a concentration range,"Shaker(Δ6-46)T449V; CHTX 100 pM to 10 nM, 10 ug Shaker plasmid",concentration-dependent inhibition
same,low concentration at which inhibition of membrane depolarization was evident,"Shaker(Δ6-46)T449V; lipoparticles produced using 10 ug Shaker plasmid, 30 mM K2SO4",0.1 nM
same,fluorescent signal on K+ addition,Shaker T449K mutant,capable of inhibiting the fluorescent signal; also recorded: inhibition
same,effect of channel inhibitor on valinomycin-mediated K+ movement (specificity control),"[1]; null-lipoparticles pre-treated with 1 uM valinomycin, CHTX up to 10 nM, tubocurarine",did not influence; also recorded: had no effect
same,CHTX inhibition of Shaker in cells reported in the literature,Shaker,~3.6 nM
gramicidin,response to 30 mM K2SO4 after prior disruption of the lipoparticle structure,[1],eliminated the response
"iberiotoxin (QFTDVDCSVSKECWSVCKDLFGVDRGKCMGKKCRCYQ; UniProt P24663 1-37, looked up)",Shaker activity,Shaker(Δ6-46)T449V,did not inhibit Shaker activity
same,lipoparticle Shaker activity,Shaker(Δ6-46)T449V; 30 mM K2SO4,do not influence
"margatoxin (TIINVKCTSPKQCLPPCKAQFGQSAGAKCMNGKCKCYPH; UniProt P40755 1-39, looked up)",Shaker activity,Shaker(Δ6-46)T449V,did not inhibit Shaker activity
same,lipoparticle Shaker activity,Shaker(Δ6-46)T449V; 30 mM K2SO4,do not influence
